Laboratory results: US20080206222A1, “Preventive/Therapeutic Composition For Free Radical Disease” (priority 2004, published 2008)

Legend:
[1] = test system: Bovine aortic endothelial cells BAE2; conditions: 22 h, 50 μM
Experimental: Bovine aortic endothelial cells BAE2 were inoculated at a cell density of 8×10^4/cm^2, and after 18 hours, each of a fullerene, ascorbic acid and the fullerenes of the invention of this application of the formulation Nos. 1 to 13 shown in the above Table 1 was administered at a concentration of 50 μM which falls within the range of the level of the respective substances in the normal human blood. After 22 hours, the amounts of fullerenes and ascorbic acid present in the cells were determined by coulometry and HPLC (high-performance liquid chromatography) with ECD (electrochemical detection). The water content in the cells was measured by gas chromatography using 14C-labeled polyethylene glycol and found to be 0.598 μL/cell.

[2] = Stability test in aqueous solution (HPLC residual ratio); type: physicochemical; conditions: 0.1% aqueous solution in purified water, room temperature
Experimental: A difference in the stabilities of PVP/fullerene (molecular weight of PVP: 60,000), a fullerene monoester, and salts of a fullerene monoester in an aqueous solution (a storage test at room temperature for 10 days) is shown in Table 7. […] Incidentally, the stability was evaluated by determining the residual ratio of the above substance using the HPLC method by leaving a 0.1% aqueous solution of the above substance (in purified water) at room temperature for 10 days.

[3] = test system: human fibrosarcoma cell line HT1080; test: Test for cell migration (cell haptotaxis), Boyden double chamber; type: cell-based; conditions: HT1080, administered at 300 μM; coulometry and HPLC with ECD
Experimental: A Boyden double chamber was used, in which a porous film with 8 μm pores was placed, the upper surface of the porous film was coated with Matrigel as a reconstituted basement membrane, the lower surface of the porous film was coated with fibronectin as an extracellular matrix. […] Further, the concentration of ascorbic acid present in the cells was determined by coulometry and HPLC with ECD.

[4] = test system: rat coronary artery occlusion model; test: Test for comparative effect on organ failure (versus human Cu-Zn SOD); type: in vivo; conditions: 5 mg/kg intravenously before occlusion and once daily for 5 days; dissection after 10 days; control Ringer's solution with human Cu-Zn SOD
Experimental: A rat coronary artery occlusion model was subjected to systemic ischemia for 5 minutes, followed by reperfusion. When the level of free radical-dependent chemiluminescence in the peripheral blood was measured using a chemical luminescence manufactured by Showa Denko K. K. from the start of this experiment, a significant increase in the level of free radical was observed from immediately after the initiation of reperfusion. In a test group, the injectable solution of Example 2 was intravenously administered to the rat at 5 mg/kg at 15 minutes before the occlusion of the coronary artery of the rat in advance, and in a control group, a Ringer's solution supplemented with human Cu—Zn SOD was injected in the same manner as in the test group. Also after the initiation of reperfusion, the above pharmaceutical composition of the present invention was injected at the same dose once daily for 5 days, and after 10 days, dissection was carried out, and cardiac, hepatic, renal, pancreatic and cystic cell necrosis indices were determined using a 45 Ca-autoradiography/image analyzer.

concentration in the cells [1] [µM]	concentration in the cells relative to that outside the cells [1] [times]	Residual ratio after 10 days (%) [2] [%]	concentration of ascorbic acid present in the cells [3] [µM]	Compound	necrosis of cardiac, hepatic, renal, pancreatic and cystic cells (45Ca-autoradiography/image analyzer) [4]
60	1.2	0	103	O=C1O[C@H]([C@@H](O)CO)C(O)=C1O [Ascorbic acid]	
				human Cu—Zn SOD: human Cu—Zn SOD added to Ringer's solution for the control group	delayed cell death
